Experimental data from patent publication EP0352248A1, “Nucleoside derivatives” (priority 1988, dated 1990).

Key:
Type in all cases: cell-based
HIV (HTLV-IIIB) = experiment: Effect on HIV in H9 cells (frequency of HIV antigen containing cells, immunofluorescence); conditions: Human immunodeficiency virus 1; H9 cells exposed to HIV (HTLV-IIIB), 6-7 days; read-out: Concentration (µM) for 50 % inhibition (IC₅₀) of human immuno deficiency virus multiplication in cell culture
Method: Test I Effect of compounds of the formula I on HIV in H9 cells
Materials and methods: HIV infection of H9 cells
H9 cells, 10⁵ cells per well on a 24 well plate, suspended in 2 ml RPMI-medium containing 10 % fetal calf serum, 100 µg/ml penicillin, 10 µg/ml streptomycin sulfate and 2 µg/ml polybrene are exposed to HIV (HTLV-IIIB) and different concentrations of the test compounds. The plates are incubated at 37°C in 5 % CO₂ for 6-7 days. The contents in each well is then homogenized with a pipette and transferred to a centrifuge tube. After centrifugation for 10 min at 1500 rpm the supernatant is removed and the cell pellet is analyzed by fixing in methanol on glass plates. Human HIV positive serum diluted 1:80 or 1:160 is added and incubated for 30 min at 37°C. The plate is then washed with phosphate-buffered saline (PBS) containing Ca²⁺ and Mg²⁺. Sheep anti-human conjugate (FITC) is added and after a new incubation the plate is again washed with PBS. Contrast straining is done with Evans blue and after drying the frequency of HIV antigen containing cells is determined in a microscope.

H9 cells = experiment: Cellular toxicity, inhibition of cell multiplication, H9 cells; conditions: conc. 200 µM, cell number after 48 h
Method: (§1) Test II Cellular toxicity
H9 cells, 2x10⁷ cells per plate, are incubated in RPMI-1640 medium containing 10 % fetal calf serum, 70 mg/l penicillin, 100 mg/l streptomycin and 10 mM hepes, in absence or presence of test compounds. The number of cells per plate is determined after 48 h. Cells incubated in the absence of test compounds then underwent two cell division cycles.
F5000 cells, which are human embryo cells, 1x10⁵ cells per plate, are incubated in Eagle's minimal essential medium, supplemented with Earle's salts, non-essential amino acids, 10 % fetal calf serum, 10 mM hepes, 70 mg/l penicillin and 100 mg/l streptomycin, in absence or presence of test compounds. The number of cells per plate is determined after 48 h. Cells incubated in the absence of test compounds underwent one cell division cycle. […]

F5000 cells = experiment: Cellular toxicity, inhibition of cell multiplication, F5000 cells; conditions: F5000 cells (human embryo cells), conc. 100 µM, cell number after 48 h
Method: as §1
F5000 cells, which are human embryo cells, 1x10⁵ cells per plate, are incubated in Eagle's minimal essential medium, supplemented with Earle's salts, non-essential amino acids, 10 % fetal calf serum, 10 mM hepes, 70 mg/l penicillin and 100 mg/l streptomycin, in absence or presence of test compounds. The number of cells per plate is determined after 48 h. Cells incubated in the absence of test compounds underwent one cell division cycle. The results are given as % inhibition of cell multiplication when the concentration of the compound is 100 µM or 250 µM.

IC50 (HIV (HTLV-IIIB)): < 1 µM
SMILES: Nc1ccn(C2CC[C@H](CO)O2)c(=O)n1 (stereo partly drawn) [VSB 815, 1-(2,3-Dideoxy-alpha,beta-L-ribofuranosyl)-cytosine]
% Inhibition H9 (H9 cells): 35 (200) % | % Inhibition F5000 (F5000 cells): 55 (100) %
